Here are results for 5 molecules from patent US5858972A, “Antithrombotic agents and methods of use” (La Jolla Cancer Research Foundation, priority 1996, dated 1999).

The target of experiment [1] is T1, GP-IIb/IIIa (Homo sapiens, UniProt P05106+P08514).
T1 construct: Platelet-rich plasma (PRP) was prepared by centrifuging heparinized; endogenous in cells; host or cells: human platelets in platelet-rich plasma (citrated or heparinized) from normal volunteers
Kind of experiment: Platelet aggregation in citrated (low Ca2+) versus heparinized (physiological Ca2+) plasma: apparent affinity for GP-IIb/IIIa. It counts as cell-based. Conditions: 10 μM ADP; for difference in apparent binding affinity for GP-IIb/IIIa at low (citrate) versus higher (heparin) calcium concentration, in words: citrated vs heparinized plasma; for increase (separation) in apparent affinity for GP-IIb/IIIa in low calcium concentration as compared to physiological calcium concentration: citrated plasma (about 0.18 mM Ca2+) vs heparinized plasma (2.3 mM Ca2+). From the text: (§1) This example provides platelet aggregation studies for various peptides of the present invention. The studies compare the effect of the peptide on aggregation in both citrated and heparinized plasma. Because citrate is a chelating agent for calcium ions, the citrated plasma has a low calcium concentration as is characteristic of a clot site. In contrast, heparinized plasma has a calcium concentration similar to that of physiological conditions elsewhere in the blood stream.
(§2) Whole blood was drawn by a licensed phlebotomist from the antecubital vein using a 21 gauge butterfly infusion set and syringe from normal human volunteers. Platelet-rich plasma (PRP) was prepared by centrifuging heparinized (20 Units lithium porcine mucosa heparin/ml whole blood) or citrated (0.38% sodium citrate) whole blood for 12 min. at 200 relative centrifugal force (RCF). Platelet-poor plasma (PPP) is prepared by centrifuging PRP at 750 RCF for 12 min. and collecting the supernatant. Blood cell counts were performed using a Serano Baker automated cell counter. PRP platelet counts were adjusted to 200,000/μl by dilution with PPP. Final plasma free Ca+^2 concentrations were approximately 0.18 mM for citrated plasma and 2.3 mM for heparinized plasma. Platelet aggregation was determined spectrophotometrically utilizing a four channel aggregometer (Chrono-Log 570) by measuring the increase of light transmission through a stirred suspension of PRP maintained at 37° C. Dilutions of the peptides were added to the suspensions and aggregation induced with 10 μM adenosine diphosphate (ADP). Values were expressed as percentage of aggregation in the absence of peptides. This represents the percentage of light transmission standardized to PRP and PPP samples yielding 0% and 100% light transmission respectively.
(§3) Peptide anti-aggregation potencies were determined from dose-responsive curves for the inhibition of the maximum aggregation responses stimulated by high doses of ADP (10 μm). The 50% inhibitory concentration of each peptide (IC50) was determined by regression analysis of these curves.

Experiment [2] deals with platelets (platelet-rich plasma). Kind of experiment: ADP-induced platelet aggregation in citrated platelet-rich plasma (low Ca2+). In kind it is cell-based. To be noted: human PRP, 10 μM ADP; for IC50, platelet aggregation in citrated plasma: citrated plasma (about 0.18 mM free Ca2+), 37° C.
Description: as §1, §2, §3

Molecules are shown by their SMILES. Converted amounts (≈) assume the structure as drawn. Where a SMILES comes first, the peptide text is derived from it. Bridges are numbered along the chain shown (N, C = ends). [ ]: non-standard residue; d: D form. Nle = CCCC[C@H](N)C(=O)O

T1 sequence (P08514 32-887 limits assumed): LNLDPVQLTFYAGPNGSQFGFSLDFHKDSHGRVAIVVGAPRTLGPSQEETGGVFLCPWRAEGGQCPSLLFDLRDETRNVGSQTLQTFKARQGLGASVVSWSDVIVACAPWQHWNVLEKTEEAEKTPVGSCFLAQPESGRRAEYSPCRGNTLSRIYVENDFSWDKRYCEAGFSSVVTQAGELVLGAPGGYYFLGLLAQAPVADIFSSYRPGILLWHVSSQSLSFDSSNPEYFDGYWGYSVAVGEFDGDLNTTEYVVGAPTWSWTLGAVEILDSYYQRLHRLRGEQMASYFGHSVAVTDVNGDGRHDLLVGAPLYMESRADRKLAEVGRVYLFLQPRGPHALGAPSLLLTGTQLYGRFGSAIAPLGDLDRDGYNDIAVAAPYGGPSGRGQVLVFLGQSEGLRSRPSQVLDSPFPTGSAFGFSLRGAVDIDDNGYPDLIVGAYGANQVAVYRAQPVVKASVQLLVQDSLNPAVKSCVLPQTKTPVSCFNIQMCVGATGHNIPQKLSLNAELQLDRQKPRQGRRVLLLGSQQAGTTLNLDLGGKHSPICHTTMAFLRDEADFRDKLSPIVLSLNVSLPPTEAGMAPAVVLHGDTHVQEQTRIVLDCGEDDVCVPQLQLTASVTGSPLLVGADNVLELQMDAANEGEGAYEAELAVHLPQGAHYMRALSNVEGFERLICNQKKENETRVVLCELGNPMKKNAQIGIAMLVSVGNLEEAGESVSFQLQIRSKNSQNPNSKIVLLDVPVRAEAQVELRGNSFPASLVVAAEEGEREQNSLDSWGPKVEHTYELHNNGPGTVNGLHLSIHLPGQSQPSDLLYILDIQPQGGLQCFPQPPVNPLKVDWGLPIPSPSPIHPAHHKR
T1 sequence (P08514 891-1039 partner limits assumed): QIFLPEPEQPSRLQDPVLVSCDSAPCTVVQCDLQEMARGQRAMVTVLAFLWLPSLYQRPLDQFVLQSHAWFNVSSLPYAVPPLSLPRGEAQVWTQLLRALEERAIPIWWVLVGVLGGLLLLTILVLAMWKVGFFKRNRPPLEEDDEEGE
T1 sequence (P05106 27-788): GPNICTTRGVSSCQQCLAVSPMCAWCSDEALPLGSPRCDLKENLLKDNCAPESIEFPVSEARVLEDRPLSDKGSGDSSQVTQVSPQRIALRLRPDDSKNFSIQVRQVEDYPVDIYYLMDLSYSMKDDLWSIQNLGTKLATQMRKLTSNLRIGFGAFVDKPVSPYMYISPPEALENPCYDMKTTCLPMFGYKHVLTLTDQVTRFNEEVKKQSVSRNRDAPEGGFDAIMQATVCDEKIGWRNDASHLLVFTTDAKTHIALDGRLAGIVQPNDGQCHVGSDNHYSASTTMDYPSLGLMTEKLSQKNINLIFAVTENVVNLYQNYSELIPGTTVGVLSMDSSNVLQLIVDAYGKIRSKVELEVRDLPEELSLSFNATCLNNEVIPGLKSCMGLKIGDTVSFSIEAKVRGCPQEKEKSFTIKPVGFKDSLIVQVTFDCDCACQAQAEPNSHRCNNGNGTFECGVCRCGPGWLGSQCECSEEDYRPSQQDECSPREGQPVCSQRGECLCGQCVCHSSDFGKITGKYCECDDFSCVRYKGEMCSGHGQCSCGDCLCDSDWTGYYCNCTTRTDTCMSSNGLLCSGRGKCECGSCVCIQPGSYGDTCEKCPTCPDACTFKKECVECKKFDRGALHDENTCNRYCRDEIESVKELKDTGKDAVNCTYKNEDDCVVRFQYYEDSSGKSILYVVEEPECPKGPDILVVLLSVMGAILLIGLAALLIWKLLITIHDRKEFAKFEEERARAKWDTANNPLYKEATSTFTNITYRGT

In the case of `COc1ccc(C[C@@H]2NC(=O)[C@H](CC(=O)O)NC(=O)CNC(=O)[C@H](C)NC(=O)[C@@H]3CCCN3C(=O)[C@H](CC(N)=O)NC(=O)[C@@H](NC(C)=O)CSSC[C@@H](C(N)=O)NC(=O)[C@H](CCCNC(=N)N)NC2=O)cc1` [SEQ ID NO. 2, Ac-CNPAGD(Y-OMe)RC-NH2] (Ac-CNPAGDY(Me)RC-NH2; disulfide 1-9), the “difference in apparent binding affinity for GP-IIb/IIIa at low (citrate) versus higher (heparin) calcium concentration, in words” value in experiment [1] is listed as “a separation between the apparent binding affinity”. In experiment [2], the “IC50, platelet aggregation in citrated plasma” value (“IC50, platelet aggregation” below) was found to be 309 µg/mL (≈ 294 µM).
Turning to `CCCC[C@H](NC(=O)[C@@H]1CCCN1C(=O)[C@H](CC(N)=O)NC(=O)[C@H](CS)NC(C)=O)C(=O)NCC(=O)N[C@@H](CC(=O)O)C(=O)N[C@@H](Cc1ccc(OC)cc1)C(=O)N[C@@H](CCCNC(=N)N)C(=O)N[C@@H](CS)C(N)=O` [SEQ ID NO. 6, Ac-CNP(Nle)GD(Y-OMe)RC-NH2] (Ac-CNP[Nle]GDY(Me)RC-NH2), the “difference in apparent binding affinity for GP-IIb/IIIa at low (citrate) versus higher (heparin) calcium concentration, in words” value in experiment [1] is given as “no difference in their apparent affinity for GP-IIb/IIIa at low versus higher calcium concentration”. Further, in experiment [2], the “inhibitory activity on platelet aggregation stimulated with ADP, in words” value is on record as “little to no activity” and the “IC50, platelet aggregation” value was above 370 µg/mL.
For `COc1ccc(C[C@H](NC(=O)[C@H](CC(=O)O)NC(=O)CNC(=O)[C@H](C)NC(=O)[C@@H]2CCCN2C(=O)[C@H](CC(N)=O)NC(=O)[C@H](CS)NC(C)=O)C(=O)N[C@@H](CCCNC(=N)N)C(=O)N[C@@H](CS)C(N)=O)cc1` [SEQ ID NO. 5, Ac-CNPAGD(Y-OMe)RC-NH2] (Ac-CNPAGDY(Me)RC-NH2), in experiment [1], the “difference in apparent binding affinity for GP-IIb/IIIa at low (citrate) versus higher (heparin) calcium concentration, in words” value was “no difference in their apparent affinity for GP-IIb/IIIa at low versus higher calcium concentration”. For the same molecule, in experiment [2], the “inhibitory activity on platelet aggregation stimulated with ADP, in words” value is reported as “little to no activity” and the “IC50, platelet aggregation” value is above 370 µg/mL.
For `COc1ccc(C[C@@H]2NC(=O)[C@H](CC(=O)O)NC(=O)CNC(=O)[C@H](CCCNC(=N)N)NC(=O)[C@@H]3CCCN3C(=O)[C@H](CC(N)=O)NC(=O)[C@@H](NC(C)=O)CSSC[C@@H](C(N)=O)NC(=O)[C@H](CCCNC(=N)N)NC2=O)cc1` [SEQ ID NO. 8, Ac-CNPRGD(Y-OMe)RC-NH2], the “increase (separation) in apparent affinity for GP-IIb/IIIa in low calcium concentration as compared to physiological calcium concentration” value in experiment [1] is 12 fold. In addition, the “IC50, platelet aggregation” value in experiment [2] is 0.2 µg/mL (≈ 0.176 µM).
On to `CCCC[C@@H]1NC(=O)[C@@H]2CCCN2C(=O)[C@H](CC(N)=O)NC(=O)[C@@H](NC(C)=O)CSSC[C@@H](C(N)=O)NC(=O)[C@H](CCCNC(=N)N)NC(=O)[C@H](Cc2ccc(OC)cc2)NC(=O)[C@H](CC(=O)O)NC(=O)CNC1=O` [SEQ ID NO. 3, Ac-CNP(Nle)GD(Y-OMe)RC-NH2] (Ac-CNP[Nle]GDY(Me)RC-NH2; disulfide 1-9), for which the “increase (separation) in apparent affinity for GP-IIb/IIIa in low calcium concentration as compared to physiological calcium concentration” value in experiment [1] is listed as 20 fold. Besides, the “IC50, platelet aggregation” value in experiment [2] was determined as 43 µg/mL (≈ 39.3 µM).
